Results: article PMC7614687, “Modulation of the substrate specificity of the kinase PDK1 by distinct conformations of the full-length protein*” (Science signaling, 2023)

Key:
PDK1 = target: T1, PDK1 (Homo sapiens, UniProt O15530); assay: Thermo Fisher Scientific/Invitrogen PDK1 cascade assay (Akt2 as substrate, no PIP3); type: biochemical; details: 10-point titration
T1 sequence (O15530 1-556): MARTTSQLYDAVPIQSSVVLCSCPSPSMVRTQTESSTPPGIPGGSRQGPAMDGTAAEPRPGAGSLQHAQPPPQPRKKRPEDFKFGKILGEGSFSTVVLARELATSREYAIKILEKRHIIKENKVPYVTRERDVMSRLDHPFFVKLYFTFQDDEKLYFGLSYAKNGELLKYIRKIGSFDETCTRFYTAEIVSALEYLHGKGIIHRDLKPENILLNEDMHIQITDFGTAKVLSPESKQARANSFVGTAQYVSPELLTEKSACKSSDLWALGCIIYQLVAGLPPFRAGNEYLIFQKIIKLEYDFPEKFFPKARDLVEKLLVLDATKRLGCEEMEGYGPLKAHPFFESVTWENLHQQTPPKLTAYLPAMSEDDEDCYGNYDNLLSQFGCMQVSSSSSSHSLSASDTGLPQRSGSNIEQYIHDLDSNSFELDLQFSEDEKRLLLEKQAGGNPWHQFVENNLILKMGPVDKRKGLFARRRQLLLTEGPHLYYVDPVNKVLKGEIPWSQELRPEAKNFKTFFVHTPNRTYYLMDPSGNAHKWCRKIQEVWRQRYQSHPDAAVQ
Experimental: To explore the structural basis of this effect, we synthesized additional inositol phosphate derivatives related to IP5 (Fig. 2A). […] The first was Thermo Fisher Scientific/Invitrogen PDK1 cascade assay, which uses Akt as substrate in a coupled, cascade-type assay and in which the activity of PDK1 is measured by its ability to activate Akt. The second was the “PDK1 Direct” assay, which uses a peptide substrate (Ser/Thr 07) of undisclosed sequence (table S1) as the substrate of PDK1 and a readout of FRET between coumarin and fluorescein (5-FAM). […] Scyllo-IP5 and another synthetic derivative of IP5, 2-O-(2-aminoethyl)-IP5 (AMR1474), were weak inhibitors in the same assays (10% or less inhibition at 1 μM) (table S2).
The commercial PDK1 activity assays were provided by Thermo Fisher Scientific as a service. […] The ¨PDK1 Direct¨ biochemical assay measures the phosphorylation of a peptide termed Ser/Thr 07 that is labeled with a donor fluorophore (coumarin) and an acceptor fluorophore (fluorescein) to create a FRET pair. The peptide substrate was first incubated with the kinase and ATP-Mg (25 μM ATP), then non-phosphorylated peptide was cleaved with a protease. The remaining FRET corresponds to the phosphorylated substrate. […]

PDK1_1-556 = target: T2, PDK1_1-556 (Homo sapiens, UniProt O15530); assay: PDK1-mediated activation/phosphorylation of Akt and SGK in vitro (cascade format, Western blot); type: biochemical; details: absence of PIP3, HYG8 1 μM
T2 construct: effect of HYG8 on the thermal stability (ΔTm) of PDK1_1-556 (H) and PDK1_50-359 (I); His (N); made in house; host or cells: Sf9 insect cells (baculovirus)
T2 sequence (O15530 1-556): T1 sequence (O15530 1-556)
Experimental: PDK1 activity was also assessed in a cascade format that measures the ability of PDK1 to activate its substrates GST-ΔN-SGK [S422D], GST-Akt [S473D] and GST-Akt ΔPH [S473D], as previously performed ([24], [28]). SGK and Akt proteins mutated at the HM phosphorylation site to Asp can be activated by phosphorylation at the activation loop by PDK1. In brief, we preincubated SGK or Akt (0.5 μg) with 10 ng or 100 ng of PDK1 at room temperature (22°C) in a buffer containing 50 mM Tris pH 7.5, 0.05 mg/ml BSA, 0.1% β-mercaptoethanol, 10 mM MgCl2, 100 μM ATP (20 μl). We measured the activity of SGK or Akt by adding 30 μl buffer containing the polypeptide substrate KK-Crosstide ([…]; 100 μM) and [γ^32P]ATP (100 μM). […]
PDK1 activity was also measured by incubating PDK1 with protein kinase substrates and measuring their phosphorylation by Western blot using phospho-specific antibodies to the activation loop phosphorylation site, essentially as previously performed ([24]), with the modification that the secondary antibodies were fluorescent for improved quantification. […] The basal phosphorylation of substrates was determined in the absence of PDK1, while “maximal” phosphorylation corresponds to the phosphorylation of substrates with excess PDK1 (10 nM PDK1 for Akt/PKB substrates and 1 nM PDK1 for SGK). […] Fluorescent signals were measured using Odyssey Fc (Licor). […]

O=C(O[C@H]1[C@@H](OP(=O)(O)O)[C@H](OP(=O)(O)O)[C@@H](OP(=O)(O)O)[C@H](OP(=O)(O)O)[C@H]1OP(=O)(O)O)c1ccccc1 [HYG8, 2-O-benzoyl-IP5]
Hill slope, Cascade (PDK1): 2.19
IC50 (PDK1; absence of PIP3): 6.42 nM
activation of Akt and Akt ΔPH by PDK1 (PDK1_1-556): selectively inhibited
activation of SGK by PDK1 (PDK1_1-556): did not inhibit
